Measured values: patent US9180111B2, “Reduction in complement activation and inflammation during tissue injury by carotenoids, carotenoid analogs, or derivatives thereof” (Cardax Pharma, Inc., priority 2005, dated 2015)

Assays:
[1] = tested on: New Zealand white rabbits; experiment: Myocardial infarct size after 30 min LAD coronary artery occlusion and 3 h reperfusion (tetrazolium method); assay type: in vivo, rabbit
Protocol: Male New Zealand white rabbits (2.3-2.6 kg) were assigned randomly to two separate groups. Each animal received DDA aqueous formulation (50 mg/kg), or an equal volume of sterile NaCl solution, once per day intravenously. The dose of DDA was selected based on the findings of previous investigations in which it was determined that a dosing regimen over four days produced statistically significant myocardial salvage in Sprague-Dawley rats (41% mean salvage at 50 mg/kg) and mongrel canines (68% mean salvage at 50 mg/kg) after ischemia and reperfusion (Gross and Lockwood, 2004; Gross and Lockwood, In Press). The animals in each group received the respective treatments on each of four consecutive days, with the experimental protocol being initiated on fifth day.
One day after the last treatment (DDA or placebo), rabbits were anesthetized with a combination of xylazine (3.0 mg/kg) and ketamine (35 mg/kg) administered intramuscularly, followed by an intravenous injection of sodium pentobarbital (15 mg/kg). An endotracheal tube was inserted and the animals were placed on a positive pressure ventilator (Harvard Apparatus, Cambridge, Mass.). The right jugular vein was cannulated for blood sampling and the right carotid artery was instrumented with a Millar catheter micro-tip pressure transducer (Millar Instruments Inc., Houston, Tex.). The Millar catheter transducer was positioned immediately above the aortic valves to monitor aortic blood pressure. The lead II electrocardiogram was monitored throughout the protocol. A left thoracotomy and pericardiotomy were performed, followed by identification of the left anterior descending coronary artery. A silk suture (3-0; Genzyme Corporation, Fall River, Mass.) was passed under the artery and around a short length of polyethylene tubing. […] Coronary artery occlusion was maintained for 30 min after which time reperfusion was initiated by withdrawing the polyethylene tubing. […]

[2] = tested on: cardiac-specific troponin I (cTnI); experiment: Measurement of cardiac-specific troponin I by ELISA; assay type: in vivo, rabbit; settings: rabbits, 50 mg/kg i.v. 4 days; not statistically significant
Protocol: Whole blood was drawn at baseline (pre-ischemia) and at the end of reperfusion for the determination of cardiac-specific troponin I (cTnI). Serum levels of the proteins were measured using a commercially available ELISA kit. Collected plasma samples were prepared from whole blood and were snap frozen in liquid nitrogen. The samples were stored at −80° C. until the day of the assay when they were thawed over ice and diluted appropriately with the sample diluent supplied with each assay kit. Determination of the target protein using a protein standard curve was performed according to standard procedure in the art.

superoxide anion = experiment: Direct superoxide anion scavenging by EPR spectroscopy (DEPMPO spin-trap) in PMA-stimulated isolated human neutrophils; assay type: cell-based; settings: aqueous phase
Protocol: Human polymorphonuclear leukocytes (PMNs) were isolated from freshly sampled venous blood of a single volunteer by Percoll density gradient centrifugation as described previously. Briefly, each 10 mL of whole blood was mixed with 0.8 mL of 0.1 M EDTA and 25 mL of saline. The diluted blood was then layered over 9 mL of Percoll at a specific density of 1.080 g/mL. After centrifugation at 400×g for 20 min at 20° C., the plasma, mononuclear cell, and Percoll layers were removed. Erythrocytes were subsequently lysed by addition of 18 mL of ice-cold water for 30 s, followed by 2 mL of 10×PIPES buffer (25 mM PIPES, 110 mM NaCl, and 5 mM KCl, titrated to pH 7.4 with NaOH). Cells were then pelleted at 4° C., the supernatant was decanted, and the procedure was repeated. […] Afterward, PMNs were counted by light microscopy on a hemocytometer. […] The microwave frequency was measured with a Model 575 microwave counter (EIP Microwave, Inc., San Jose, Calif.). […]
Instrument settings used in the spin-trapping experiments were as follows: modulation amplitude, 0.32 G; time constant, 0.16 s; scan time, 60 s; modulation frequency, 100 kHz; microwave power, 20 milliwatts; and microwave frequency, 9.76 GHz. The samples were placed in a quartz EPR flat cell, and spectra were recorded. The component signals in the spectra were identified and quantified as reported previously.

mongrel canines = settings: 50 mg/kg i.v., four days; cited from earlier work
Sprague-Dawley rats = settings: 50 mg/kg i.v., four days; cited from earlier work

SMILES: CC1=C(/C=C/C(C)=C/C=C/C(C)=C/C=C/C=C(C)/C=C/C=C(C)/C=C/C2=C(C)C(=O)C(OC(=O)CCC(=O)O)CC2(C)C)C(C)(C)CC(OC(=O)CCC(=O)O)C1=O (stereo not shown) [DDA, disodium disuccinate astaxanthin]
- mean myocardial salvage ([1]; 50 mg/kg daily i.v. for four days, versus placebo): 51%
- mean infarct size expressed as a percentage of the area at risk ([1]; 50 mg/kg/day i.v. for 4 days, 30 min occlusion, 3 h reperfusion, mean ± S.E.M.): 25.8±4.2%
- heart rate, blood pressure, blood gases versus saline group ([1]; baseline and throughout protocol on day 5): No differences
- mean serum cTnI concentration at the end of reperfusion versus vehicle controls [2]: lower mean cTnI concentration
- direct aqueous superoxide anion scavenging (superoxide anion): potent direct scavengers of superoxide anion
- mean myocardial salvage (mongrel canines): 68%
- mean myocardial salvage (Sprague-Dawley rats): 41%
